Reference: US10472352B2, “Rac inhibitors” (Geneyus LLC, priority 2017, dated 2019)
Read-outs that look alike come from different tables or passages of the source.

Tested on: BT474 breast cancer cells
Assay: BT474 Four (4) Day Cell Viability Assay
Type: cell-based
Conditions: BT474, 4 days; for viability at 2.5 µM / viability at 5 µM: Homo sapiens, BT-474, 96 h, read-out: cellular viability; for viability at 2.5 µM: 32661 2.5 μM; for viability at 5 µM: 32661 5 μM
Procedure: BT474 breast cancer cells that are Estrogen Receptor Positive and HER2+ were grown in 5% cFBS. 5,000 cells were seeded into each well of a 96-well plate and treated with escalating doses of lapatinib, fulvestrant, and 32661.

[1] = fulvestrant 0.0 nM, lapatinib 0.0 nM
[2] = fulvestrant 0.0 nM, lapatinib 6.9 nM
[3] = fulvestrant 0.0 nM, lapatinib 20.6 nM
[4] = fulvestrant 0.0 nM, lapatinib 61.7 nM
[5] = fulvestrant 0.0 nM, lapatinib 185.2 nM
[6] = fulvestrant 0.0 nM, lapatinib 555.6 nM
[7] = fulvestrant 0.0 nM, lapatinib 1666.7 nM
[8] = fulvestrant 0.0 nM, lapatinib 3333.0 nM
[9] = fulvestrant 6.9 nM, lapatinib 0.0 nM
[10] = fulvestrant 6.9 nM, lapatinib 6.9 nM
[11] = fulvestrant 6.9 nM, lapatinib 20.6 nM
[12] = fulvestrant 6.9 nM, lapatinib 61.7 nM
[13] = fulvestrant 6.9 nM, lapatinib 185.2 nM
[14] = fulvestrant 6.9 nM, lapatinib 555.6 nM
[15] = fulvestrant 6.9 nM, lapatinib 1666.7 nM
[16] = fulvestrant 6.9 nM, lapatinib 3333.0 nM
[17] = fulvestrant 20.6 nM, lapatinib 0.0 nM
[18] = fulvestrant 20.6 nM, lapatinib 6.9 nM
[19] = fulvestrant 20.6 nM, lapatinib 20.6 nM
[20] = fulvestrant 20.6 nM, lapatinib 61.7 nM
[21] = fulvestrant 20.6 nM, lapatinib 185.2 nM
[22] = fulvestrant 20.6 nM, lapatinib 555.6 nM
[23] = fulvestrant 20.6 nM, lapatinib 1666.7 nM
[24] = fulvestrant 20.6 nM, lapatinib 3333.0 nM
[25] = fulvestrant 61.7 nM, lapatinib 0.0 nM
[26] = fulvestrant 61.7 nM, lapatinib 6.9 nM
[27] = fulvestrant 61.7 nM, lapatinib 20.6 nM
[28] = fulvestrant 61.7 nM, lapatinib 61.7 nM
[29] = fulvestrant 61.7 nM, lapatinib 185.2 nM
[30] = fulvestrant 61.7 nM, lapatinib 555.6 nM
[31] = fulvestrant 61.7 nM, lapatinib 1666.7 nM
[32] = fulvestrant 61.7 nM, lapatinib 3333.0 nM
[33] = fulvestrant 185.2 nM, lapatinib 0.0 nM
[34] = fulvestrant 185.2 nM, lapatinib 6.9 nM
[35] = fulvestrant 185.2 nM, lapatinib 20.6 nM
[36] = fulvestrant 185.2 nM, lapatinib 61.7 nM
[37] = fulvestrant 185.2 nM, lapatinib 185.2 nM
[38] = fulvestrant 185.2 nM, lapatinib 555.6 nM
[39] = fulvestrant 185.2 nM, lapatinib 1666.7 nM
[40] = fulvestrant 185.2 nM, lapatinib 3333.0 nM
[41] = fulvestrant 555.6 nM, lapatinib 0.0 nM
[42] = fulvestrant 555.6 nM, lapatinib 6.9 nM
[43] = fulvestrant 555.6 nM, lapatinib 20.6 nM
[44] = fulvestrant 555.6 nM, lapatinib 61.7 nM
[45] = fulvestrant 555.6 nM, lapatinib 185.2 nM
[46] = fulvestrant 555.6 nM, lapatinib 555.6 nM
[47] = fulvestrant 555.6 nM, lapatinib 1666.7 nM
[48] = fulvestrant 555.6 nM, lapatinib 3333.0 nM
[49] = fulvestrant 1666.7 nM, lapatinib 0.0 nM
[50] = fulvestrant 1666.7 nM, lapatinib 6.9 nM
[51] = fulvestrant 1666.7 nM, lapatinib 20.6 nM
[52] = fulvestrant 1666.7 nM, lapatinib 61.7 nM
[53] = fulvestrant 1666.7 nM, lapatinib 185.2 nM
[54] = fulvestrant 1666.7 nM, lapatinib 555.6 nM
[55] = fulvestrant 1666.7 nM, lapatinib 1666.7 nM
[56] = fulvestrant 1666.7 nM, lapatinib 3333.0 nM
[57] = fulvestrant 3333.0 nM, lapatinib 0.0 nM
[58] = fulvestrant 3333.0 nM, lapatinib 6.9 nM
[59] = fulvestrant 3333.0 nM, lapatinib 20.6 nM
[60] = fulvestrant 3333.0 nM, lapatinib 61.7 nM
[61] = fulvestrant 3333.0 nM, lapatinib 185.2 nM
[62] = fulvestrant 3333.0 nM, lapatinib 555.6 nM
[63] = fulvestrant 3333.0 nM, lapatinib 1666.7 nM

Compound: FC(F)(F)c1ccc2c(SCCCCCCn3cnc(CN4CCOCC4)c3)ccnc2c1 [Compound 0032661, 4-[[1-[6-[[7-(trifluoromethyl)-4-quinolyl]sulfanyl]hexyl]imidazol-4-yl]methyl]morpholine]
- cellular viability, addition of 32661 to lapatinib and fulvestrant: enhanced the reduction of cellular viability
- cellular viability, addition of 32661 to lapatinib and fulvestrant (listed as 32661): further enhanced the reduction of cellular viability
- viability at 2.5 µM [1]: 96%
- viability at 2.5 µM [2]: 85%
- viability at 2.5 µM [3]: 80%
- viability at 2.5 µM [4]: 81%
- viability at 2.5 µM [5]: 83%
- viability at 2.5 µM [6]: 73%
- viability at 2.5 µM [7]: 60%
- viability at 2.5 µM [8]: 23%
- viability at 2.5 µM [9]: 90%
- viability at 2.5 µM [10]: 83%
- viability at 2.5 µM [11]: 80%
- viability at 2.5 µM [12]: 80%
- viability at 2.5 µM [13]: 78%
- viability at 2.5 µM [14]: 66%
- viability at 2.5 µM [15]: 55%
- viability at 2.5 µM [16]: 25%
- viability at 2.5 µM [17]: 87%
- viability at 2.5 µM [18]: 77%
- viability at 2.5 µM [19]: 79%
- viability at 2.5 µM [20]: 79%
- viability at 2.5 µM [21]: 76%
- viability at 2.5 µM [22]: 63%
- viability at 2.5 µM [23]: 54%
- viability at 2.5 µM [24]: 25%
- viability at 2.5 µM [25]: 87%
- viability at 2.5 µM [26]: 78%
- viability at 2.5 µM [27]: 78%
- viability at 2.5 µM [28]: 78%
- viability at 2.5 µM [29]: 73%
- viability at 2.5 µM [30]: 63%
- viability at 2.5 µM [31]: 53%
- viability at 2.5 µM [32]: 21%
- viability at 2.5 µM [33]: 84%
- viability at 2.5 µM [34]: 81%
- viability at 2.5 µM [35]: 82%
- viability at 2.5 µM [36]: 77%
- viability at 2.5 µM [37]: 73%
- viability at 2.5 µM [38]: 63%
- viability at 2.5 µM [39]: 54%
- viability at 2.5 µM [40]: 18%
- viability at 2.5 µM [41]: 83%
- viability at 2.5 µM [42]: 78%
- viability at 2.5 µM [43]: 80%
- viability at 2.5 µM [44]: 79%
- viability at 2.5 µM [45]: 75%
- viability at 2.5 µM [46]: 62%
- viability at 2.5 µM [47]: 48%
- viability at 2.5 µM [48]: 14%
- viability at 2.5 µM [49]: 75%
- viability at 2.5 µM [50]: 72%
- viability at 2.5 µM [51]: 73%
- viability at 2.5 µM [52]: 72%
- viability at 2.5 µM [53]: 59%
- viability at 2.5 µM [54]: 47%
- viability at 2.5 µM [55]: 24%
- viability at 2.5 µM [56]: 7%
- viability at 2.5 µM [57]: 52%
- viability at 2.5 µM [58]: 42%
- viability at 2.5 µM [59]: 34%
- viability at 2.5 µM [60]: 30%
- viability at 2.5 µM [61]: 26%
- viability at 2.5 µM [62]: 22%
- viability at 2.5 µM [63]: 16%
- viability at 2.5 µM (fulvestrant 3333.0 nM, lapatinib 3333.0 nM): 1%
- viability at 5 µM [1]: 95%
- viability at 5 µM [2]: 87%
- viability at 5 µM [3]: 84%
- viability at 5 µM [4]: 87%
- viability at 5 µM [5]: 79%
- viability at 5 µM [6]: 67%
- viability at 5 µM [7]: 51%
- viability at 5 µM [8]: 16%
- viability at 5 µM [9]: 93%
- viability at 5 µM [10]: 83%
- viability at 5 µM [11]: 82%
- viability at 5 µM [12]: 82%
- viability at 5 µM [13]: 77%
- viability at 5 µM [14]: 65%
- viability at 5 µM [15]: 42%
- viability at 5 µM [16]: 14%
- viability at 5 µM [17]: 91%
- viability at 5 µM [18]: 80%
- viability at 5 µM [19]: 79%
- viability at 5 µM [20]: 78%
- viability at 5 µM [21]: 71%
- viability at 5 µM [22]: 60%
- viability at 5 µM [23]: 39%
- viability at 5 µM [24]: 11%
- viability at 5 µM [25]: 90%
- viability at 5 µM [26]: 80%
- viability at 5 µM [27]: 78%
- viability at 5 µM [28]: 76%
- viability at 5 µM [29]: 67%
- viability at 5 µM [30]: 60%
- viability at 5 µM [31]: 39%
- viability at 5 µM [32]: 11%
- viability at 5 µM [33]: 90%
- viability at 5 µM [34]: 78%
- viability at 5 µM [35]: 78%
- viability at 5 µM [36]: 76%
- viability at 5 µM [37]: 67%
- viability at 5 µM [38]: 56%
- viability at 5 µM [39]: 35%
- viability at 5 µM [40]: 10%
- viability at 5 µM [41]: 86%
- viability at 5 µM [42]: 79%
- viability at 5 µM [43]: 74%
- viability at 5 µM [44]: 72%
- viability at 5 µM [45]: 56%
- viability at 5 µM [46]: 48%
- viability at 5 µM [47]: 29%
- viability at 5 µM [48]: 6%
- viability at 5 µM [49]: 81%
- viability at 5 µM [50]: 60%
- viability at 5 µM [51]: 60%
- viability at 5 µM [52]: 48%
- viability at 5 µM [53]: 36%
- viability at 5 µM [54]: 29%
- viability at 5 µM [55]: 18%
- viability at 5 µM [56]: 1%
- viability at 5 µM [57]: 56%
- viability at 5 µM [58]: 35%
- viability at 5 µM [59]: 29%
- viability at 5 µM [60]: 21%
- viability at 5 µM [61]: 22%
- viability at 5 µM [62]: 19%
- viability at 5 µM [63]: 11%
